Data as given in patent publication US9724351B2, “Compounds for the treatment of paramoxyvirus viral infections” (priority 2012, dated 2017).

How the values were obtained:
[1] = system: Respiratory Syncytial Virus (RSV) long strain (ATCC#VR-26); assay: RSV Antiviral Assay (CPE reduction assay); type: cell-based; details: human respiratory syncytial virus, 120 h; HEp-2 cells infected with RSV long strain, 5 days, CCK-8 readout; bins (Table 2: less than 1 μM; Table 3: equal to or higher than 1 μM and less than 50 μM); read-out: 50% effective concentration (EC50)
Description: CPE reduction assays are performed as described by Sidwell and Huffman et al., Appl. Microbiol. (1971) 22(5):797-801 with slight modifications. HEp-2 cells (ATCC#, CCL-23) are seeded at a density of 1,500 cells/30 μl/well into the 384-well cell plate(s) (Corning#3701) one day prior to the assay. Compounds are added into 384-well cell plates by Labcyte POD 810 Plate Assembler system. Each of the test compounds is provided to duplicate wells of a 384-well cell plate at final concentrations starting from 100 μM or 1 μM using ⅓ stepwise dilutions for 9 points. Quick-thaw Respiratory Syncytial Virus (RSV) long strain (ATCC#VR-26) stock in a 37° C. water bath. Place on ice until ready to use. Viruses are diluted to the concentration of 100 TCID50/30 μl with medium and 30 μl diluted RSV are added into related wells of 384-well cell plates. For each plate, sixteen wells are set aside as uninfected, untreated cell controls (CC), and nine wells per test plate receive virus only as a control for virus replication (VC). The final DMSO concentration of all wells is 1%. Place the plates at 37° C., 5% CO2 for 5 days.
After 5 days incubation, observe the CPE of cells in all wells. […] Six μl of cell counting kit-8 reagent (CCK-8, Dojindo Molecular Technologies Inc., CK04-20) are added to each well, which allows colorimetric assays to determine the number of viable cells through the dehydrogenase activity detection. After 3-4 hour incubation, the absorbance of each well is measured with a spectrophotometric plate reader at 450 nm wavelength, using a 630 nm filter as background according to manufacturer's instruction. The 50% effective concentration (EC50) is calculated by using regression analysis, based on the mean O.D. at each concentration of compound.

[2] = Cytotoxicity Determination; type: cell-based; details: human, HEp-2 cells, without addition of virus, CCK-8 readout, bins (Table 4: greater than 100 μM; Table 5: equal to or less than 100 μM and greater than 10 μM), read-out: 50% cytotoxicity concentration (CC50)
In short: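 CC50 was derived from CCK-8 optical density after a 3-4 h reagent incubation. Before that, cells without virus had been treated for 5 days at 37 °C, 5% CO2 with compound at seven ½-step final concentrations from 100 μM, in duplicate wells.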

| SMILES | EC50 [1] [nM] | CC50 at 5 days [2] [µM] |
| --- | --- | --- |
| COc1ccc(C(=O)NCC(=O)c2nc(-c3csc4c(F)cccc34)cs2)cc1OC [Compound 1206] | 1000 to 50000 | 10 to 100 |
| COc1cc(C(=O)NCC(=O)N/N=C/c2csc3c(F)cccc23)ccc1OCCO [Compound 604] | < 1000 | > 100 |
| COc1cc(C(=O)CNC(=O)c2ccc(OC)c(OC)c2)nc(-c2ccc(-c3c[nH]nn3)cc2)c1 [Compound 1405] | 1000 to 50000 | 10 to 100 |
| COc1ccc(C(=O)N2CCCC2C(=O)c2ccc(OC)c(-c3csc4c(F)cccc34)n2)cc1OC (centres unmarked) [Compound 1822] | 1000 to 50000 | 10 to 100 |
| COc1cc(C(=O)NCC(=O)c2ccc(OC)c(-c3n[nH]c4ccccc34)n2)ccc1OCCO [Compound 1346] | 1000 to 50000 | > 100 |
| CCc1ccc(C(=O)CNC(=O)c2ccc(OC)c(OC)c2)nc1-c1csc2c(F)cccc12 [Compound 2105] | 1000 to 50000 | 10 to 100 |
| COc1ccc(C(=O)NCC(=O)c2ccc(OC)c(-c3cccc(F)c3)n2)cc1OC [Compound 1527] | 1000 to 50000 | > 100 |
| CCOc1ccc(C(=O)NCC(=O)N/N=C/c2coc3c(F)cccc23)cc1OC [Compound 400-28] | 1000 to 50000 | > 100 |
| CCc1cc(C(=O)CNC(=O)c2ccc(OCCO)c(OC)c2)nc(-c2c[nH]c3c(F)cccc23)c1 [Compound 2112] | < 1000 | > 100 |
| COc1ccc(C(=O)N2CCCCC2C(=O)c2ccc(OC)c(-c3csc4c(F)cccc34)n2)cc1OC (centres unmarked) [Compound 1800] | 1000 to 50000 | 10 to 100 |
| CCOc1ccc(C(=O)NCC(=O)N/N=C(/CCOC)c2csc3c(F)cccc23)cc1OC [Compound 463B] | < 1000 | > 100 |
| COc1ccc(C(=O)NCC(=O)c2ccc(OC)c(-c3ccc(N4CCCCC4)cc3)n2)cc1OC [Compound 1524] | 1000 to 50000 | > 100 |
| COc1cc(C(=O)NCC(=O)c2ccc(OC)c(-c3ccccc3)n2)ccc1OCCO [Compound 1613] | < 1000 | > 100 |
| COc1cc(C(=O)NCC(=O)c2ccc(OC)c(-c3ccc(Cl)cc3)n2)ccc1OCCO [Compound 1607] | < 1000 | 10 to 100 |
| COc1ccc(C(=O)NCC(=O)c2ccc(OC)c(-c3ccc(F)c(Cl)c3)n2)cc1OC [Compound 1529] | < 1000 | > 100 |
| COc1ccc(C(=O)NCC(=O)c2ccc(OC)c(-c3csc4c(F)cccc34)n2)cc1OC [Compound 1336] | < 1000 | > 100 |
| COc1ccc(C(=O)NCC(=O)c2ccc(OC)c(-c3ccc(C#N)cc3)n2)cc1OC [Compound 1505] | < 1000 | > 100 |
| CCCC/C(=N\NC(=O)CNC(=O)c1ccc(OCC)c(OC)c1)c1csc2ccccc12 [Compound 488] | < 1000 | > 100 |
| CCOc1ccc(C(=O)NCC(=O)N/N=C(\CCc2ccccc2)c2csc3ccccc23)cc1OC [Compound 459] | < 1000 | > 100 |
| COc1ccc(C(=O)NCC(=O)c2ccc(OC)c(-c3ccc(F)c(Cl)c3)n2)cc1F [Compound 2642] | 1000 to 50000 | > 100 |
| COc1cc(C(=O)NCC(=O)c2cccc(-c3csc4c(F)cccc34)n2)ccc1OC1CC(O)C1 (centres unmarked) [Compound 1256] | < 1000 | 10 to 100 |
| CCc1cc(C(=O)CNC(=O)c2ccc(OCCO)c(OC)c2)nc(-c2coc3c(F)cccc23)c1 [Compound 2111] | < 1000 | > 100 |
| CCOc1ccc(C(=O)NCC(=O)N/N=C(\C)c2csc3ccccc23)cc1N(CC)CC [Compound 505] | 1000 to 50000 | 10 to 100 |
| COc1cc(C(=O)NCC(=O)c2cc(CO)cc(-c3csc4c(F)cccc34)n2)ccc1OCCO [Compound 1255] | < 1000 | 10 to 100 |
| COc1ccc(C(=O)NCC(=O)c2cc(C(C)C)cc(-c3csc4c(F)cccc34)n2)cc1OC [Compound 1200] | < 1000 | > 100 |
| COc1ccc(C(=O)NCC(=O)N/N=C/c2cc3c(F)cccc3s2)cc1OC [Compound 400-2] | 1000 to 50000 | 10 to 100 |

| SMILES | EC50 [1] [nM] | CC50 at 5 days [2] [µM] |
| --- | --- | --- |
| COc1ccc(C(=O)NCC(=O)c2ncc(-c3csc4c(F)cccc34)[nH]2)cc1OC [Compound 1352] | 1000 to 50000 | 10 to 100 |
| COc1ccc(C(=O)NCC(=O)N/N=C2\CCCc3sc4ccccc4c32)cc1OC [Compound 446] | < 1000 | > 100 |
| COc1cc(C(=O)NCC(=O)c2cccc(-c3csc4c(F)cccc34)n2)ccc1O[C@H]1CC[C@@H](O)CC1 [Compound 1225] | 1000 to 50000 | > 100 |
| CCOc1ccc(C(=O)NCC(=O)N/N=C/c2csc3ccccc23)cc1OCC [Compound 231] | 1000 to 50000 | 10 to 100 |
| COc1ccc(C(=O)NCC(=O)N/N=C/c2csc3cc(F)ccc23)cc1OC [Compound 400-17] | 1000 to 50000 | 10 to 100 |
| COc1ccc(C(=O)NCC(=O)c2ccc(OC)c(-c3ccc(OC(F)(F)F)cc3)n2)cc1OC [Compound 1532] | 1000 to 50000 | 10 to 100 |
| COc1ccc(C(=O)NC(CO)C(=O)c2ccc(OC)c(-c3csc4c(F)cccc34)n2)cc1OC (centres unmarked) [Compound 1816] | < 1000 | > 100 |
| COCC/C(=N/NC(=O)CNC(=O)c1ccc(OC)c(OC)c1)c1csc2c(F)cccc12 [Compound 400-16] | 1000 to 50000 | > 100 |
| COc1cc(C(=O)NCC(=O)c2ccc(OC)c(-c3c(C)[nH]c4c(F)cccc34)n2)ccc1OCCO [Compound 4002] | < 1000 | 10 to 100 |
| CCc1ccc(C(=O)CNC(=O)c2ccc(OCCO)c(OC)c2)nc1-c1csc2c(F)cccc12 [Compound 2106] | < 1000 | 10 to 100 |
| COc1ccc(C(=O)NCC(=O)N/N=C/c2csc3ccccc23)cc1OC [Compound 401] | 1000 to 50000 | 10 to 100 |
| COc1cc(C(=O)NCC(=O)c2ccc(OC)c(-c3ccc(F)c(F)c3)n2)ccc1OCCO [Compound 1618] | < 1000 | > 100 |
| COc1cc(C(=O)NCC(=O)N/N=C(\C)c2csc3ccccc23)ccc1OC(C)C [Compound 475] | < 1000 | > 100 |
| COc1cc(C(=O)NC(CCO)C(=O)c2ccc(OC)c(-c3ccc(F)c(Cl)c3)n2)ccc1OCCO (centres unmarked) [Compound 1837] | < 1000 | 10 to 100 |
| COc1cc(C(=O)NCC(=O)c2ccc(OC)c(-c3ccc(F)c(O)c3)n2)ccc1OCCO [Compound 1328] | < 1000 | > 100 |
| COc1cc(C(=O)NCC(=O)c2ccc(OC)c(-c3ccc(Cl)nc3)n2)ccc1OCCO [Compound 1330] | 1000 to 50000 | > 100 |
| COc1ccc(C(=O)NCC(=O)c2ccc(OC)c(-c3ccc4[nH]cnc4c3)n2)cc1OC [Compound 1534] | 1000 to 50000 | > 100 |
| CCNc1ccc(C(=O)NCC(=O)N/N=C(\C)c2csc3ccccc23)cc1 [Compound 501] | 1000 to 50000 | 10 to 100 |
| COc1cc(C(=O)NCC(=O)c2cc(C(C)C)cc(-c3csc4c(F)cccc34)n2)ccc1OCCO [Compound 1227] | < 1000 | 10 to 100 |
| CCCC/C(=N\NC(=O)CNC(=O)c1ccc(OC)c(OC)c1)c1csc2ccccc12 [Compound 423] | < 1000 | > 100 |
| COCC/C(=N/NC(=O)CNC(=O)c1ccc(OC)c(OC)c1O)c1csc2c(F)cccc12 [Compound 400-21] | 1000 to 50000 | > 100 |
| COc1cc(C(=O)NCC(=O)c2ccc(OC)c(-c3ccc(F)c(Cl)c3)n2)ccc1OC(F)F [Compound 2646] | < 1000 | 10 to 100 |
| COc1ccc(C(=O)NCC(=O)N/N=C(\CCCC(C)C)c2csc3ccccc23)cc1OC [Compound 489] | 1000 to 50000 | 10 to 100 |
| CCOCC/C(=N\NC(=O)CNC(=O)c1ccc(OC)c(OC)c1)c1csc2ccccc12 [Compound 400-1] | < 1000 | > 100 |
| CCCC/C(=N\NC(=O)CNC(=O)c1ccc(OC)c(OC)c1)c1csc2c(F)cccc12 [Compound 400-7] | < 1000 | 10 to 100 |
| COc1ccc(C(=O)NCC(=O)c2ccc(OC)c(-c3cnoc3)n2)cc1OC [Compound 1510] | 1000 to 50000 | 10 to 100 |
